Test results: ChEMBL document CHEMBL1126430, “The role of arginine in interactions of microcystins with protein phosphatases 1 and 2a” (Bioorg Med Chem Lett, 1992)
Starred links: 1 amine or outer side, 2 acyl side, 3 side chain; linkers in the order of their positions; H or OH if unused. Positions of bridges follow the written chain, without caps; N, C: chain ends. Non-standard residues stand in square brackets, D forms with d. Residues, ends and D or L forms follow the SMILES beside them. Adda = CO[C@@H](Cc1ccccc1)[C@@H](C)/C=C(C)/C=C/[C@H](N[*:1])[C@H](C)C(=O)[*:2]; dAsp(3S-Me) = C[C@H](C(=O)[*:3])[C@@H](N[*:1])C(=O)[*:2]; d(γGlu) = O=C(O)[C@@H](CCC(=O)[*:2])N[*:1]; NMeDha = C=C(NC)C(=O)O

Key:
[1] = Effective dose that causes 50 % inhibition of protein phosphatase 2A (PP2A), isolated from mouse skin
[2] = Compound was evaluated for the ability to inhibit dephosphorylation of [32P]phosphorylase by Protein phosphatase 1
[3] = Compound was evaluated for the ability to inhibit specific [3H]-okadaic acid binding to Protein phosphatase 1
[4] = Compound was evaluated for the ability to inhibit dephosphorylation of [32P]phosphorylase by protein phosphatase 2A (PP2A)
[5] = Compound was evaluated for the ability to inhibit specific [3H]-okadaic acid binding to protein phosphatase 2A (PP2A)

Row | Structure (SMILES) | ED50 [1] [pM] | ED50 [2] [pM] | ED50 [3] [pM] | ED50 [4] [pM] | ED50 [5] [pM]
1 | CC=C1C(=O)N[C@@H](C(=O)O)[C@H](C)C(=O)N[C@@H](CCCNC(=N)N)C(=O)N[C@@H](/C=C/C(C)=C/[C@H](C)[C@H](Cc2ccccc2)OC)[C@H](C)C(=O)N[C@@H](C(=O)O)CCC(=O)N1C | 900 |  |  |  | 
2 | C=C1C(=O)N[C@H](C)C(=O)N[C@@H](CC(C)C)C(=O)N[C@@H](C(=O)O)[C@H](C)C(=O)N[C@@H](C)C(=O)N[C@@H](/C=C/C(C)=C/[C@H](C)[C@H](Cc2ccccc2)OC)[C@H](C)C(=O)N[C@@H](C(=O)O)CCC(=O)N1C (A[Adda][d(γGlu)][NMeDha][dA]L[dAsp(3S-Me)]-OH; lactam N-7) |  | 900 | 10600 | 380 | 10000
3 | C=C1C(=O)N[C@H](C)C(=O)N[C@@H](CC(C)C)C(=O)N[C@@H](C(=O)O)[C@H](C)C(=O)N[C@@H](CCCNC(=N)N)C(=O)N[C@@H](/C=C/C(C)=C/[C@H](C)[C@H](Cc2ccccc2)OC)[C@H](C)C(=O)N[C@@H](C(=O)O)CCC(=O)N1C (R[Adda][d(γGlu)][NMeDha][dA]L[dAsp(3S-Me)]-OH; lactam N-7) | 800 | 440 | 7800 | 320 | 5200
